Test results reported in patent US20060014231A1, “Methods and compositions to promote bone homeostasis” (priority 2004, published 2006).
Entries after “also recorded” stand apart in the source; their conditions may differ.

Assays:
[1] = molecular target: T1, NR1H3 (Homo sapiens, UniProt Q13133); assay: Osteogenic marker mRNA levels in MPCs, Ad-NR1H3+T0901317 (rtRT-PCR); format: cell-based; settings: Ad-NR1H3+T0901317 (1 μM); up-regulated = 4-fold higher than Ad-eGFP or Ad-luciferase; one or more time points
T1 construct: amplification of the complete open reading frame from ATG start codon to the stop codon of drugable genes; expressed in transfected cells; host or cells: primary human bone-marrow mesenchymal progenitor cells (MPCs), adenoviral transduction (Ad5-NR1H3 with Ad-hCAR)
T1 sequence (Q13133 1-447): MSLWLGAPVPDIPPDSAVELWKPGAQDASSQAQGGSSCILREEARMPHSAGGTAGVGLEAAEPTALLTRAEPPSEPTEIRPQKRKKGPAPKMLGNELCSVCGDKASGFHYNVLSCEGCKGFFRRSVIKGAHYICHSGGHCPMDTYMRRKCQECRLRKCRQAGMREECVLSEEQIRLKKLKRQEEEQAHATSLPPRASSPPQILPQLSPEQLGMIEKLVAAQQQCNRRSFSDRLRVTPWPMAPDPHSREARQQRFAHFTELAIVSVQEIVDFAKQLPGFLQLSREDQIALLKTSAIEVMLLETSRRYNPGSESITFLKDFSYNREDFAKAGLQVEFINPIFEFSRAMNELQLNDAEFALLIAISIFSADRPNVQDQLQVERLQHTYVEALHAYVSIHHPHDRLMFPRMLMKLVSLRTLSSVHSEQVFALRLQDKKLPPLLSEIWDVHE
Method: 100,000 MPCs are seeded in each well of a 6 well plate in 2 ml MPC medium, containing 10% FCS. The next day, after incubation at 37° C., 10% CO2 in a humidified incubator, cells are co-infected with AdC15-hCAR (final MOI of 750) and Ad-NR5A2, Ad-NR1H3+T0901317 (1 μM) or Ad-BMP2 (positive control) or Ad-eGFP or Ad-luciferase as negative controls (final MOIs of 1250 and 2500). Cells are incubated at 37° C., 10% CO2 in a humidified incubator for a further six days unless cells are already harvested for RNA isolation. Virus is removed and replaced by 2 ml fresh OS medium (proprietary medium containing 10% FCS). Over the next 3 weeks, medium is refreshed 3 times per 2 weeks. Every other time, medium is refreshed half or completely. Monolayers are harvested at several time points (see FIG. 15), total RNA is harvested and quantified and rtRT-PCRs are run as follows: monolayers are washed with ice cold PBS and harvested by adding SV RNA Lysis Buffer. Total RNA is prepared using the SV Total RNA isolation System (Promega, Cat # Z3100). RNA concentration is measured with the Ribogreen RNA Quantification kit (Molecular Probes, Leiden, The Netherlands, Cat No. R-11490). cDNA synthesis is performed using 20 ng total RNA per reaction using the TaqMan Universal PCR Master Mix, No AmpErase UNG, kit (Applied Biosystems, Warrington, UK, Part number 4324018). For each reverse transcriptase (RT) reaction a minus-RT reaction (negative control: no enzyme included in the reaction) is performed. The real-time reverse transcriptase (rtRT)-PCR reaction is performed with gene specific primers on both cDNA and minus-RT samples, using the SYBR Green PCR Master Mix (Applied Biosystems, Warrington, UK, Part number 4309155). Primers are quality controlled by performing PCR reactions on human genomic DNA and on plasmids containing the cDNA encoded by the gene studied if available. If the quality is unsatisfactory, additional primers are designed or validated primer sets are purchased (ABI). For the normalization of the expression levels a RT-PCR reaction is performed on human P-actin using the Human P-actin kit (Applied Biosystems, Warrington, UK, Part number 4310881E). The following program is run on a real-time PCR apparatus (ABI PRISM 7000 Sequence Detection System): 10 min at 25° C., 30 min at 48° C., 5 min at 95° C.
Expression levels for osteogenic marker genes are first normalized for beta-actin levels. The resulting data for Ad-BMP2, Ad-NR5A2 and Ad-NR1H3+T0901317 (1 μM) samples are then compared to those of Ad-eGFP or Ad-luciferase negative control samples, harvested at the same time points, for cells infected at the same MOI.

[2] = tested on: calvarial skull bones (hemicalvaria); assay: Calvarial skull assay (bone organ culture, weight and histological readout); parameters: species or system CD1 mice
Method: CD1 pups are harvested around birth from CD1 female mice (received from Janvier (Le Genest St Isle, France) when they were 11 days pregnant). Pups are decapitated and the calvarial skull is dissected and split into 2 hemicalvaria. Hemicalvaria are blotted using sterile gauze, weighed and cultured in 24 well plates (MEMalpha or BGJb-Fitton-Jackson medium containing 50 μg/ml L-ascorbic acid (Sigma, A-4034), 5 mM β-glycerophosphate (Sigma, G-9891) and Penicillin-Streptomycin (Invitrogen Cat # 15140-122)). Small molecules (ligands, agonists, antagonists) are tested in at least three-fold at a minimum of 3 concentrations. Each small molecule is added to the medium on day 0 and added again when refreshing the medium (every 2-3 days). Three to 16 days after the start of the experiment, skulls are weighed again after blotting them dry using sterile gauze. The weight difference is calculated, expressed as percent weight change and the mean and standard deviations (SD) are calculated for the triplicate measurements. Data are analyzed using the Student's t-test.
The formation of new osteoid is analyzed histologically as follows: hemicalvaria are fixed in 10% buffered formalin for at least 2 days, decalcified in 10% EDTA overnight, processed through graded alcohols and embedded in paraffin wax. Three to 10 μm sections are prepared of the calvaria and stained with hematoxylin and eosin (H&E). Healthy cells, dead cells, old and new bone, and collagen are identified by their distinctive morphology and colouring observed after H&E staining. The surfaces taken by these are measured stereologically (μm^2 readout) and termed Osteoblast area, Debris area, Native and New bone area, Collagen area and Total area (sum of the previous 5 areas), respectively. In addition, the thickness (μm readout) is measured at 8 positions, evenly spaced over the section.
The histological readout of the calvarial skull assay is developed using known osteogenic agents. Hemicalvaria were treated with recombinant human parathyroid hormone (rhPTH).
T0901317 is added to the culture medium of the dissected hemicalvaria at the day of dissection at several doses (19.5, 78.1 and 313 nM), in fourfold. The concentration of the solvent (vehicle), DMSO, is fixed at a final concentration of 0.05%. The medium, containing T0901317 or vehicle control is refreshed every 2-3 days. Hemicalvaria are harvested 7 days after the initiation of the experiment and subjected to the histological analysis described above.

[3] = 19.5, 78.1 and 313 nM, 7 days, H&E histology
[4] = 19.5, 78.1 and 313 nM, 7 days, H&E histology, versus 0.05% DMSO

BAP mRNA expression [1]: up-regulated | PTHR1 mRNA expression [1]: up-regulated | RANKL mRNA expression [1]: up-regulated | aromatase mRNA expression [1]: up-regulated | osteopontin mRNA expression [1]: up-regulated
Compound: O=S(=O)(c1ccccc1)N(CC(F)(F)F)c1ccc(C(O)(C(F)(F)F)C(F)(F)F)cc1 [T0901317]
thickness [2, 3]: Dose-response activity | total area (sum of all areas measured) [2, 3]: Dose-response activity | collagen area [2, 4]: Statistically significant increases | new bone area [2, 4]: Statistically significant increases | osteoblast area [2, 4]: Statistically significant increases; also recorded: Dose-response activity | weight change of calvarial skull explants ([2]; figure legends FIG. 17 and FIG. 18): Weight increases
